The CheMixHub viscosity set

Test: xn = mol fraction of the nth substance listed

CC(=O)O + CS(C)=O
viscosity [mPa·s]
Details | 298.15 K | 303.15 K | 308.15 K | 313.15 K | 318.15 K | 323.15 K
101 kPa, x2 = 0.2 | 2.359 | – | – | – | – | –
101 kPa, x2 = 0.4 | 2.806 | – | – | – | – | –
101 kPa, x2 = 0.6 | 2.525 | – | – | – | – | –
101 kPa, x2 = 0.8 | 2.231 | – | – | – | – | –
101.33 kPa, x1 = 0.0999 | – | 1.891 | 1.728 | 1.588 | 1.463 | 1.353
101.33 kPa, x1 = 0.199 | – | 1.975 | 1.803 | 1.655 | 1.525 | 1.411
101.33 kPa, x1 = 0.2973 | – | 2.082 | 1.898 | 1.738 | 1.605 | 1.482
101.33 kPa, x1 = 0.4013 | – | 2.265 | 2.06 | 1.884 | 1.732 | 1.59
101.33 kPa, x1 = 0.5005 | – | 2.383 | 2.165 | 1.975 | 1.809 | 1.664
101.33 kPa, x1 = 0.5997 | – | 2.46 | 2.223 | 2.024 | 1.848 | 1.695
101.33 kPa, x1 = 0.6966 | – | 2.374 | 2.148 | 1.946 | 1.78 | 1.628
101.33 kPa, x1 = 0.8068 | – | 2.05 | 1.857 | 1.694 | 1.549 | 1.425
101.33 kPa, x1 = 0.9006 | – | 1.601 | 1.464 | 1.345 | 1.241 | 1.149
101.33 kPa, x2 = 0.0978 | 1.755 | – | 1.458 | – | 1.229 | –
101.33 kPa, x2 = 0.1997 | 2.299 | – | 1.876 | – | 1.552 | –
101.33 kPa, x2 = 0.2991 | 2.631 | – | 2.142 | – | 1.762 | –
101.33 kPa, x2 = 0.4069 | 2.728 | – | 2.228 | – | 1.84 | –
101.33 kPa, x2 = 0.5247 | 2.661 | – | 2.17 | – | 1.784 | –
101.33 kPa, x2 = 0.6036 | 2.465 | – | 2.034 | – | 1.694 | –
101.33 kPa, x2 = 0.7038 | 2.303 | – | 1.91 | – | 1.591 | –
101.33 kPa, x2 = 0.804 | 2.178 | – | 1.804 | – | 1.507 | –
101.33 kPa, x2 = 0.903 | 2.081 | – | 1.733 | – | 1.443 | –

O=S(=O)(O)O + COc1ccccc1
viscosity [mPa·s], 101 kPa
Details | x1 = 0.0892 | x1 = 0.2274 | x1 = 0.5064 | x1 = 0.6238 | x1 = 0.6321 | x1 = 0.6494 | x1 = 0.679 | x1 = 0.7207 | x1 = 0.746 | x1 = 0.9241
293.15 K | 1.46 | 3.17 | 41.69 | 260.3 | 172.8 | 263.5 | 317.9 | 262.1 | 201.3 | 34.68
303.15 K | 1.35 | 1.79 | 30.05 | 166 | 100.8 | 141.3 | 182 | 151.4 | 131.3 | 22.53
313.15 K | 1.25 | 2 | 23.8 | 87.9 | 70.2 | 79.44 | 105 | 83.3 | 71.9 | 16.6
323.15 K | 1.15 | 2.58 | 17.8 | 72.9 | 42.1 | 47.4 | 83.18 | 50.18 | 44.8 | 11.9
